Results taken from patent publication US8933089B2, “HIV inhibiting 5-amido substituted pyrimidines” (Janssen R & D Ireland, priority 2006, dated 2015).

Tests used:
Assay type in all cases: cell-based, HIV-1
[1] = test system: HIV strain L100I; experiment: Cellular anti-HIV assay in MT4 LTR-EGFP cells, mutant L100I; conditions: Human immunodeficiency virus 1, read-out: L100I pEC50 (converted)
Experimental: (§1) Because of the increasing emergence of drug resistant HIV strains, the present compounds were tested for their potency against clinically isolated HIV strains harbouring several mutations. These mutations are associated with resistance to reverse transcriptase inhibitors and result in viruses that show various degrees of phenotypic cross-resistance to the currently commercially available drugs such as for instance AZT and delavirdine.
(§2) The antiviral activity of the compound of the present invention has been evaluated in the presence of wild type HIV and HIV mutants bearing mutations at the reverse transcriptase gene. The activity of the compounds is evaluated using a cellular assay which was performed according to the following procedure.
(§3) The human T-cell line MT4 is engineered with Green Fluorescent Protein (GFP) and an HIV-specific promoter, HIV-1 long terminal repeat (LTR). This cell line is designated MT4 LTR-EGFP, and can be used for the in vitro evaluation of anti-HIV activity of investigational compounds. In HIV-1 infected cells, the Tat protein is produced which upregulates the LTR promotor and finally leads to stimulation of the GFP reporter production, allowing to measure ongoing HIV-infection fluorometrically. Analogously, MT4 cells are engineered with GFP and the constitutional cytomegalovirus (CMV) promotor. This cell line is designated MT4 CMV-EGFP, and can be used for the in vitro evaluation of cytotoxicity of investigational compounds. In this cell line, GFP levels are comparably to those of infected MT4 LTR-EGFP cells. Cytotoxic investigational compounds reduce GFP levels of mock-infected MT4 CMV-EGFP cells.
(§4) Effective concentration values such as 50% effective concentration (EC50) can be determined and are usually expressed in μM. An EC50 value is defined as the concentration of test compound that reduces the fluorescence of HIV-infected cells by 50%. The 50% cytotoxic concentration (CC50 in μM) is defined as the concentration of test compound that reduces fluorescence of the mock-infected cells by 50%. The ratio of CC50 to EC50 is defined as the selectivity index (SI) and is an indication of the selectivity of the anti-HIV activity of the inhibitor. The ultimate monitoring of HIV-1 infection and cytotoxicity is done using a scanning microscope. Image analysis allows very sensitive detection of viral infection. Measurements are done before cell necrosis, which usually takes place about five days after infection, in particular measurements are performed three days after infection.
(§5) The columns IIIB, L100I, etc. in the table list the pEC50 values against various strains IIIB, L100I, etc.

[2] = test system: HIV strain Y188L; experiment: Cellular anti-HIV assay in MT4 LTR-EGFP cells, mutant Y188L; conditions: Human immunodeficiency virus 1, read-out: Y188L pEC50 (converted)
Experimental: as §1, §2, §3, §4, §5

[3] = test system: HIV strain L100I + K103N; experiment: Cellular anti-HIV assay in MT4 LTR-EGFP cells, mutant L100I + K103N; conditions: Human immunodeficiency virus 1, 72 h, read-out: L100I + K103N pEC50 (converted)
Experimental: as §1, §2, §3, §4, §5

[4] = test system: HIV strain IIIB (wild type); experiment: Cellular anti-HIV assay in MT4 LTR-EGFP cells, strain IIIB (wild type); selectivity index versus cytotoxicity in mock-infected MT4 CMV-EGFP cells; conditions: for EC50: Human immunodeficiency virus 1, 72 h, wild type HIV strain IIIB, MT4 LTR-EGFP cells, fluorescence, three days after infection, read-out: IIIB pEC50 (converted); for IIIB pSi: selectivity index = ratio of CC50 (mock-infected MT4 CMV-EGFP cells) to EC50 (IIIB), given as p value
Experimental: as §2, §3, §4, §5
Strain IIIB is wild type HIV strain

[5] = test system: HIV strain K103N + Y181C; experiment: Cellular anti-HIV assay in MT4 LTR-EGFP cells, mutant K103N + Y181C; conditions: Human immunodeficiency virus 1, 72 h, read-out: K103N + Y181C pEC50 (converted)
Experimental: as §1, §2, §3, §4, §5

[6] = test system: HIV strain Y181C; experiment: Cellular anti-HIV assay in MT4 LTR-EGFP cells, mutant Y181C; conditions: Human immunodeficiency virus 1, read-out: Y181C pEC50 (converted)
Experimental: as §1, §2, §3, §4, §5

[7] = test system: HIV strain K103N; experiment: Cellular anti-HIV assay in MT4 LTR-EGFP cells, mutant K103N; conditions: Human immunodeficiency virus 1, read-out: K103N pEC50 (converted)
Experimental: as §1, §2, §3, §4, §5

[8] = test system: HIV strain MDR; experiment: Cellular anti-HIV assay in MT4 LTR-EGFP cells, MDR strain; conditions: Human immunodeficiency virus 1, read-out: MDR pEC50 (converted)
Experimental: as §1, §2, §3, §4, §5
MDR refers to a strain that contains mutations L100I, K103N, Y181C, E138G, V1791, L2214F, V278V/I and A327A/V in HIV reverse transcriptase.

Row | SMILES | EC50 [1] | EC50 [2] | EC50 [3] | EC50 [4] | IIIB pSi [4] | EC50 [5] | EC50 [6] | EC50 [7] | EC50 [8]
1 | Cc1cc(/C=C/C#N)cc(C)c1Nc1nc(Nc2ccc(C#N)cc2)ncc1C(=O)Nc1cccc(Cl)c1 [Compound 16] | 79.4 nM | 501 nM | 501 nM | 25.1 nM | 2.60 | 316 nM | 200 nM | 3.98 nM | 7940 nM
2 | Cc1cc(/C=C/C#N)cc(C)c1Nc1nc(Nc2ccc(C#N)cc2)ncc1C(=O)NCc1ccco1 [Compound 19] | 3.98 nM | 20 nM | 50.1 nM | 3.98 nM | 3.60 | 20 nM | 20 nM | 3.98 nM | 1000 nM
3 | CONC(=O)c1cnc(Nc2ccc(C#N)cc2)nc1Nc1c(C)cc(/C=C/C#N)cc1C [Compound 23] | 5.01 nM | 15.8 nM | 12.6 nM | 3.98 nM | >3.80 | 7.94 nM | 15.8 nM |  | 794 nM
4 | Cc1ccc(CNC(=O)c2cnc(Nc3ccc(C#N)cc3)nc2Nc2c(C)cc(/C=C/C#N)cc2C)o1 [Compound 24] | 25.1 nM | 79.4 nM | 79.4 nM | 15.8 nM | 3.00 | 50.1 nM | 25.1 nM |  | 5010 nM
5 | COc1ccccc1CNC(=O)c1cnc(Nc2ccc(C#N)cc2)nc1Nc1c(C)cc(/C=C/C#N)cc1C [Compound 27] | 50.1 nM | 79.4 nM |  | 6.31 nM | >3.60 | 39.8 nM | 39.8 nM | 7.94 nM | 3160 nM
6 | Cc1cccc(CNC(=O)c2cnc(Nc3ccc(C#N)cc3)nc2Nc2c(C)cc(/C=C/C#N)cc2C)c1 [Compound 28] | 50.1 nM | 126 nM |  | 15.8 nM | 3.10 | 50.1 nM | 79.4 nM | 15.8 nM | 7940 nM
7 | Cc1cc(/C=C/C#N)cc(C)c1Nc1nc(Nc2ccc(C#N)cc2)ncc1C(=O)NCCc1ccccc1 [Compound 31] | 31.6 nM | 79.4 nM |  | 15.8 nM | 3.10 | 50.1 nM | 63.1 nM | 15.8 nM | 10000 nM
8 | Cc1cc(/C=C/C#N)cc(C)c1Nc1nc(Nc2ccc(C#N)cc2)ncc1C(=O)NCCc1cccc(F)c1 [Compound 32] | 39.8 nM | 100 nM |  | 12.6 nM | 3.10 | 79.4 nM | 79.4 nM | 15.8 nM | 10000 nM
9 | CCOC(=O)CCCNC(=O)c1cnc(Nc2ccc(C#N)cc2)nc1Nc1c(C)cc(/C=C/C#N)cc1C [Compound 45] | 6.31 nM | 20 nM |  | 2.51 nM | >4.00 | 15.8 nM |  | 2 nM | 1000 nM
10 | Cc1cc(/C=C/C#N)cc(C)c1Nc1nc(Nc2ccc(C#N)cc2)ncc1C(=O)NCCC#N [Compound 46] | 7.94 nM | 31.6 nM | 15.8 nM | 7.94 nM | >3.50 | 39.8 nM |  | 3.98 nM | 158 nM
11 | Cc1cc(/C=C/C#N)cc(C)c1Oc1nc(Nc2ccc(C#N)cc2)ncc1C(=O)NCc1ccncc1 [Compound 58] |  | 158 nM | 316 nM | 2 nM | >4.10 | 100 nM |  | 6.31 nM | 3160 nM
